The source of these data is PMC4568831 (Molecular pharmaceutics, 2015).

The conditions of series [1]: mice; cited from earlier work.
For series [2] the following is noted: cited from earlier work.
For series [3] the following is noted: humans; cited from earlier work.
A short description of series [4]: In vitro precipitation / solubilization of CFZ in aqueous media. The format is physicochemical. The settings on record: ~5 M HCl, diprotonated state.
Series [5] is described as follows: Measurement of CFZ in tissues, partition ratios after prolonged oral dosing. The format is in vivo, mice (male C57Bl6). Particulars: mice, after eight week washout period.

SMILES strings stand for the structures. Like-named read-outs stand apart in the source and are kept apart here.

`CC(C)/N=c1\cc2n(-c3ccc(Cl)cc3)c3ccccc3nc-2cc1Nc1ccc(Cl)cc1` [CFZ, Clofazimine]: the figures for the “pharmacokinetic half-life t1/2” value in series [1] and in series [3] were 170 h and ~ 70 days, respectively. The half-life result in series [2] (oral, after an acute dose) is “hours to days”; in series [2] (upon prolonged oral administration), “weeks to months”. Besides, the “pH at which CFZ was completely solubilized in aqueous media” value in series [4] was less than 1. Also, the “CFZ mass retained in spleen” value in series [5] is recorded as “exceeded its combined mass retained in the other organs”.
